Data published in ChEMBL document CHEMBL1201862, “PubChem BioAssay data set” (2004).
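96-well plates; 48 h exposure; 5 concentrations. Endpoints by linear interpolation between flanking doses. Not reached: highest tested concentration assigned. GI50 is the concentration that inhibits growth by half.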 The source made the active and inactive calls. Rule as the data show it: active = GI50 up to about 1.1 µM and inactive = higher.

What was measured:
Assay in all cases: NCI anticancer screen, dose series, 48 h
HOP-62 = system: HOP-62
SF-539 = system: SF-539
MOLT-4 = system: MOLT-4
SF-295 = system: SF-295
COLO 205 = system: COLO 205
IGROV-1 = system: IGROV-1
NCI-H23 = system: NCI-H23
U-251 = system: U-251
NCI-H226 = system: NCI-H226
TK-10 = system: TK-10
ACHN = system: ACHN
OVCAR-4 = system: OVCAR-4
M19-MEL = system: M19-MEL
UACC-62 = system: UACC-62
NCI-H522 = system: NCI-H522
OVCAR-3 = system: OVCAR-3
DMS-114 = system: DMS-114
CCRF-CEM = system: CCRF-CEM
SK-MEL-28 = system: SK-MEL-28
SNB-19 = system: SNB-19
SK-MEL-5 = system: SK-MEL-5
SK-MEL-2 = system: SK-MEL-2
SNB-75 = system: SNB-75
HL-60 = system: HL-60
HT-29 = system: HT-29
OVCAR-8 = system: OVCAR-8
RPMI-8226 = system: RPMI-8226
CAKI-1 = system: CAKI-1
DMS-273 = system: DMS-273
Malme-3M = system: Malme-3M
HOP-92 = system: HOP-92
UACC-257 = system: UACC-257
HCT-15 = system: HCT-15
M14 = system: M14
EKVX = system: EKVX
A549 = system: A549
KM12 = system: KM12
SW-620 = system: SW-620
K562 = system: K562
RXF 393 = system: RXF 393
SNB-78 = system: SNB-78
NCI-H460 = system: NCI-H460
HCC 2998 = system: HCC 2998
SK-OV-3 = system: SK-OV-3
UO-31 = system: UO-31
LOX IMVI = system: LOX IMVI
DLD-1 = system: DLD-1
KM-20L2 = system: KM-20L2
786-0 = system: 786-0
OVCAR-5 = system: OVCAR-5
A498 = system: A498
SF-268 = system: SF-268
SN12C = system: SN12C

Q: Which results are given for `Nc1ccccc1SC(/C=C/NNC1=NN=C(c2ccccc2)C(c2ccccc2)N1)c1ccccc1` (stereo not drawn)?
A: GI50 (HOP-62): 19.5 µM (inactive); GI50 (SF-539): 13.2 µM (inactive); GI50 (MOLT-4): 3.64 µM (inactive); GI50 (SF-295): 12.1 µM (inactive); GI50 (COLO 205): 15.6 µM (inactive); GI50 (IGROV-1): 15.4 µM (inactive); GI50 (NCI-H23): 5.85 µM (inactive); GI50 (U-251): 15 µM (inactive); GI50 (NCI-H226): 13.7 µM (inactive); GI50 (TK-10): 19 µM (inactive); GI50 (ACHN): 14.9 µM (inactive); GI50 (OVCAR-4): 14.9 µM (inactive); GI50 (M19-MEL): 11.4 µM (inactive); GI50 (UACC-62): 10.6 µM (inactive); GI50 (NCI-H522): 3.85 µM (inactive); GI50 (OVCAR-3): 13 µM (inactive); GI50 (DMS-114): 13.6 µM (inactive); GI50 (CCRF-CEM): 2.59 µM (inactive); GI50 (SK-MEL-28): 13.7 µM (inactive); GI50 (SNB-19): 18.7 µM (inactive); GI50 (SK-MEL-5): 13.4 µM (inactive); GI50 (SK-MEL-2): 17.7 µM (inactive); GI50 (SNB-75): 4.72 µM (inactive); GI50 (HL-60): 3.32 µM (inactive); GI50 (HT-29): 17.1 µM (inactive); GI50 (OVCAR-8): 18.1 µM (inactive); GI50 (RPMI-8226): 2.96 µM (inactive); GI50 (CAKI-1): 10.6 µM (inactive); GI50 (DMS-273): 16.9 µM (inactive); GI50 (Malme-3M): 15.9 µM (inactive); GI50 (HOP-92): 8.57 µM (inactive); GI50 (UACC-257): 13.5 µM (inactive); GI50 (HCT-15): 11.5 µM; GI50 (M14): 12.4 µM (inactive); GI50 (EKVX): 15.4 µM (inactive); GI50 (A549): 15.2 µM (inactive); GI50 (KM12): 12.7 µM (inactive); GI50 (SW-620): 11.7 µM (inactive); GI50 (K562): 9.25 µM (inactive); GI50 (RXF 393): 14 µM (inactive); GI50 (SNB-78): 18 µM (inactive); GI50 (NCI-H460): 18.5 µM (inactive); GI50 (HCC 2998): 16.5 µM (inactive); GI50 (SK-OV-3): 29.6 µM (inactive); GI50 (UO-31): 4.45 µM (inactive); GI50 (LOX IMVI): 12.7 µM (inactive); GI50 (DLD-1): 12.9 µM (inactive); GI50 (KM-20L2): 21 µM (inactive); GI50 (786-0): 12.2 µM (inactive); GI50 (OVCAR-5): 20.8 µM (inactive); GI50 (A498): 20.4 µM (inactive); GI50 (SF-268): 5.64 µM (inactive); GI50 (SN12C): 17 µM (inactive)
